Experimental data from publication PMC12592486 (Scientific Reports, 2025).

Key:
[1] = molecular target: T1, α-glucosidase (Saccharomyces cerevisiae, UniProt P53341); assay: α-glucosidase inhibition assay; assay type: biochemical, S. cerevisiae
[2] = molecular target: T1, α-glucosidase; assay: Enzyme kinetics study; assay type: biochemical, S. cerevisiae

T1 sequence (P53341 whole entry): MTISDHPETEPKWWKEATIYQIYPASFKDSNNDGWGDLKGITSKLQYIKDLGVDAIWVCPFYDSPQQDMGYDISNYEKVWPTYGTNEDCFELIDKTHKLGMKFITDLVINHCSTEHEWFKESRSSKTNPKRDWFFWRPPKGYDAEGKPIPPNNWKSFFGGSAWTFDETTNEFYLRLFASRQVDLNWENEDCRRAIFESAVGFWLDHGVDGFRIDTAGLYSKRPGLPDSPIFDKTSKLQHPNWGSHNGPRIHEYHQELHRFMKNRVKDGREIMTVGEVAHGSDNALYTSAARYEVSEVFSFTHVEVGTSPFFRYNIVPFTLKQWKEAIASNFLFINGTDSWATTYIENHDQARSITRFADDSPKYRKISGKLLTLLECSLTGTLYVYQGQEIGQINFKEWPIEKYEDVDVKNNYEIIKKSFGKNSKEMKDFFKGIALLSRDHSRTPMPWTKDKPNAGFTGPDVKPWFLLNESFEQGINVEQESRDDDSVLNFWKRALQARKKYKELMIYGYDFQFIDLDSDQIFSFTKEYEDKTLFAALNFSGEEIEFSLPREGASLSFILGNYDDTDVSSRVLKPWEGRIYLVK

| Compound | times/folds more active than the standard inhibitor acarbose [1] | further results |
| --- | --- | --- |
| COc1ccc(NC(=S)NN=Cc2cn(S(=O)(=O)c3ccc(Cl)cc3)c3ccccc23)cc1 [Compound 5b, 2-({1-[(4-Chlorophenyl)sulfonyl]-1H-indol-3-yl}methylene)-N-(4-methoxyphenyl)hydrazine-1-carbothioamide] |  | folds more active than 5k ([1]; 4-methoxyphenyl vs 3-methoxyphenyl): 1.3 folds |
| CC(C)CNC(=S)NN=Cc1cn(S(=O)(=O)c2ccc(Cl)cc2)c2ccccc12 [Compound 5p, 2-({1-[(4-Chlorophenyl)sulfonyl]-1H-indol-3-yl}methylene)-N-isobutylhydrazine-1-carbothioamide] | fifteen |  |
| O=S(=O)(c1ccc(Cl)cc1)n1cc(C=NNC(=S)Nc2ccc(Br)cc2)c2ccccc21 [Compound 5s, N-(4-Bromophenyl)-2-({1-[(4-chlorophenyl)sulfonyl]-1H-indol-3-yl}methylene)hydrazine-1-carbothioamide] | more than 100 folds |  |

More lines, main results first:

| times/folds more active than the standard inhibitor acarbose [1] | Compound | further results |
| --- | --- | --- |
| 162 folds | O=S(=O)(c1ccc(Cl)cc1)n1cc(C=NNC(=S)Nc2ccc(Br)cc2F)c2ccccc21 [Compound 5u, N-(4-Bromo-2-fluorophenyl)-2-({1-[(4-chlorophenyl)sulfonyl]-1H-indol-3-yl}methylene)hydrazine-1-carbothioamide] | better inhibition of 5u compared to 5p ([1]; most active vs least active inhibitor): about 11 folds; Ki [2]: 3.57 ± 0.0084 µM; type of inhibition ([2]; Km increases, Vmax constant): competitive type inhibitor |
| more than 100 folds | O=S(=O)(c1ccc(Cl)cc1)n1cc(C=NNC(=S)Nc2c(Cl)cccc2Cl)c2ccccc21 [Compound 5w, 2-({1-[(4-Chlorophenyl)sulfonyl]-1H-indol-3-yl}methylene)-N-(2,6-dichlorophenyl)hydrazine-1-carbothioamide] |  |
